Experimental findings from US11840551B2, “Compositions and methods of modulating the immune response by activating alpha protein kinase 1” (Shanghai Yao Yuan Biotechnology Co., Ltd., priority 2017, dated 2023) are described below.

Molecules are shown by their SMILES.

In one series the target is ALPK1 (Homo sapiens, UniProt Q96QP1). As to the kind of experiment: IL8 secretion in HEK293 cells (IL8 ELISA) as indicator of ALPK1 activation. The following applies: cells cultured with fetal bovine, human or mouse serum.
ALPK1, sequence (Q96QP1 whole entry): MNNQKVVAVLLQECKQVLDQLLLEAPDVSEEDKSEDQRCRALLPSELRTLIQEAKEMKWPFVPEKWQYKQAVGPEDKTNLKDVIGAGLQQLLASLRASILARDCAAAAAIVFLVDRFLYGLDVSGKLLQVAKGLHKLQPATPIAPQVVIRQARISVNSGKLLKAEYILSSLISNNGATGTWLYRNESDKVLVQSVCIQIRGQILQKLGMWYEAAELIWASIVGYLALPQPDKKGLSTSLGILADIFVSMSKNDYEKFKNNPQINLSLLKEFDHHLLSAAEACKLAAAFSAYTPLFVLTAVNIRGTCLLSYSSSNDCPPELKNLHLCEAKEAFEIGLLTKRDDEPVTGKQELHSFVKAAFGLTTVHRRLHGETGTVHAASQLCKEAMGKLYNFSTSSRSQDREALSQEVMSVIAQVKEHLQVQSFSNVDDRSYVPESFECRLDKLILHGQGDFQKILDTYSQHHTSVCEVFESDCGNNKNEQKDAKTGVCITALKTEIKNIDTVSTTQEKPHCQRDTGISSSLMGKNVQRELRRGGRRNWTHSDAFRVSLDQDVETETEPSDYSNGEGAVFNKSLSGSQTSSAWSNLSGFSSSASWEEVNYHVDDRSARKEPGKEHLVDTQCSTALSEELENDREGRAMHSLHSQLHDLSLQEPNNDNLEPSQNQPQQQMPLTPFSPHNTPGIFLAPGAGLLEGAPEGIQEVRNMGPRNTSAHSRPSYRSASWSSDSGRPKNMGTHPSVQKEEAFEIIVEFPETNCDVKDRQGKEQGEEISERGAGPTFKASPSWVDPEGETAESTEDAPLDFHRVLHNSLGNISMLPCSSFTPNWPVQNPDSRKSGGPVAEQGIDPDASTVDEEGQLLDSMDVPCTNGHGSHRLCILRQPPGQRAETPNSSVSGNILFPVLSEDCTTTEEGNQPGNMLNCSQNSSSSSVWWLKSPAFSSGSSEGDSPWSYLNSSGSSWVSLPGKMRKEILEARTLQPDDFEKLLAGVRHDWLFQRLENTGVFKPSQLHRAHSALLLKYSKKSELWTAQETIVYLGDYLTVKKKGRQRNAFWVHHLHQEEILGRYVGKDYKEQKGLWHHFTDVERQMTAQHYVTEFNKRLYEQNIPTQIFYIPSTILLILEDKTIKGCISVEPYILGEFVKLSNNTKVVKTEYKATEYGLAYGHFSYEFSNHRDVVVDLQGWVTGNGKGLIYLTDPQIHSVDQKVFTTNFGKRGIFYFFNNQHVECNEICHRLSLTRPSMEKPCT
For series [1], the system named is phosphatase activity in the serum. As to the kind of experiment: Incubation of H1b-ADP with FBS, product analysed by LC-MS. It is filed as in vitro ADME, bovine. The note with it: increasing incubation time, LC-MS; product determined to be AMP. The source says: FBS contains 110-352 μU/ml alkaline phosphatase.
The test system of a further series is CT26 cells. The experiment in a line: mRNA expression in CT26 tumor tissue after intratumoral injection (qPCR). It is filed as in vivo, BALB/c mice. The note with it: H1b-ADP 2.5 μg, 250 ng, 50 ng intratumoral, 4 hours post-injection. How it is done: We next asked whether H1b-ADP caused an increase in pro-inflammatory cytokines within the tumor. Tumor cells (2×10^5 per 100 μL CT26 cells) were inoculated subcutaneously into the right flank of BALB/c mice. 2.5 μg (n=2), 250 ng (n=2), 50 ng (n=2) of H1b-ADP or control (n=2) was intratumorally injected (20 uL) at day 7 post inoculation. 4 hours post-injection, tumor issues were dissected and harvested. Total RNA was isolated (TRIzol™, ThermoFisher) and cDNA was synthesized (PrimeScript™ RT reagent Kit, Takara) and amplified (AceQ™ qPCR SYBR™ Green Master Mix, Vazyme Biotech using a QuantStudio™ 7 Flex Real-Time PCR Systems (ThermoFisher) according to manufacturers' protocols.

Description for ALPK1: Phosphatase such as the alkaline phosphatase may be responsible for H1b-ADP hydrolysis. We pre-mixed H1b-ADP with phosphatase inhibitor sodium orthovanadate (Na3VO4) before incubation with FBS. […] We hypothesized that the accumulation of hydrolysis product AMP can inhibit phosphatase activity.
A number of H1b-ADP derivative compounds were made as described herein and tested for biological activity as agonists of ALPK1 in vitro. In these experiments, serial dilutions of the compounds were added to the tissue culture media of HEK293 cells with (FIG. 27B, FIG. 28B, FIG. 29B) or without (FIG. 26, FIG. 27A, FIG. 28A, FIG. 29A) 10% FBS, as indicated in the figures. After 4 hours, the cell supernatant was collected and analyzed for IL8 concentration using IL8 ELISA (BD) as an indicator of ALPK1 activation.

Take `Nc1ncnc2c1ncn2[C@@H]1O[C@H](COP(=O)(O)OP(=O)(O)O[C@@H]2O[C@H]([C@H](O)CO)[C@@H](O)[C@H](O)[C@@H]2O)[C@@H](O)[C@H]1O` [Compound H1b-ADP, D-glycero-D-manno-heptose-1β-ADP]: the “H1b-ADP's activity to activate ALPK1 in HEK293 cells (IL8 secretion)” value at ALPK1 was “greatly declined”. For the same molecule, the “H1b-ADP amount on incubation with FBS” value in series [1] is “the H1b-ADP amount declined”. Also, in the series on CT26 cells, the “PD-1 and PD-L1 expression in tumor” value is on record as “increased in H1b-ADP injected tumor”; the “mRNA expression of CD8, CD4, Foxp3 and T-bet in tumor” value is “increased upon H1b-ADP injection”; the “mRNA expression of inflammatory cytokine IL-1b, Tnfa, Ifn gamma, and IL-6, and chemokine Cxcl1 in tumor” value is “increased upon H1b-ADP injection”.
